From patent US11884661B2, “3-substituted propionic acids as αV integrin inhibitors” (BRISTOL-MYERS SQUIBB COMPANY, priority 2016, dated 2024) come the findings set out here.

T1 sequence (P06756 31-992 limits assumed): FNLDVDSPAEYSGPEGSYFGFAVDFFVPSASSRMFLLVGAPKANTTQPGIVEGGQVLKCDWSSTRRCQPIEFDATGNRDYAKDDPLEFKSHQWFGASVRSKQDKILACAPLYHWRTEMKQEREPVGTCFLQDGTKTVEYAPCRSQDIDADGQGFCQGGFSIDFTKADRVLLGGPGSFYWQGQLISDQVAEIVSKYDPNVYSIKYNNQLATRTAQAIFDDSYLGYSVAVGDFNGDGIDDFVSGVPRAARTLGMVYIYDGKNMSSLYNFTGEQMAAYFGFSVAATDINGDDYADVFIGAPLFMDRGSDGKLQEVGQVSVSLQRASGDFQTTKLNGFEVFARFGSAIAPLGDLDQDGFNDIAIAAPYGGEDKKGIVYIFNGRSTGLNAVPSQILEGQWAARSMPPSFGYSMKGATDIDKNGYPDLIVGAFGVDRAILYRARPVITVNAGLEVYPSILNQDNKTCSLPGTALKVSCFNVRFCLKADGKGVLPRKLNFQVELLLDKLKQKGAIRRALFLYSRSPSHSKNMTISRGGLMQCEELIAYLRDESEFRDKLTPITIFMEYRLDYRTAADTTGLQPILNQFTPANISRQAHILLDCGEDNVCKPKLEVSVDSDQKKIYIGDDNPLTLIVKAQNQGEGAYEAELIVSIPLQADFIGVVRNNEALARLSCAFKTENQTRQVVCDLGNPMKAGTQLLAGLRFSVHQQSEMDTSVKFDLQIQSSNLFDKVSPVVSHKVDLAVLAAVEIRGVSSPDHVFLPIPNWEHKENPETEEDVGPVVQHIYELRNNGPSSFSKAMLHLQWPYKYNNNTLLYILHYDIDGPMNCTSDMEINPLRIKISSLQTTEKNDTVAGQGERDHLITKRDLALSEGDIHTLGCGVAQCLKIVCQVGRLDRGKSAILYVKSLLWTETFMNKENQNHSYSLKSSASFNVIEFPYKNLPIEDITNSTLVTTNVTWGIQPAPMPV
T1 sequence (P18564 22-707 limits assumed): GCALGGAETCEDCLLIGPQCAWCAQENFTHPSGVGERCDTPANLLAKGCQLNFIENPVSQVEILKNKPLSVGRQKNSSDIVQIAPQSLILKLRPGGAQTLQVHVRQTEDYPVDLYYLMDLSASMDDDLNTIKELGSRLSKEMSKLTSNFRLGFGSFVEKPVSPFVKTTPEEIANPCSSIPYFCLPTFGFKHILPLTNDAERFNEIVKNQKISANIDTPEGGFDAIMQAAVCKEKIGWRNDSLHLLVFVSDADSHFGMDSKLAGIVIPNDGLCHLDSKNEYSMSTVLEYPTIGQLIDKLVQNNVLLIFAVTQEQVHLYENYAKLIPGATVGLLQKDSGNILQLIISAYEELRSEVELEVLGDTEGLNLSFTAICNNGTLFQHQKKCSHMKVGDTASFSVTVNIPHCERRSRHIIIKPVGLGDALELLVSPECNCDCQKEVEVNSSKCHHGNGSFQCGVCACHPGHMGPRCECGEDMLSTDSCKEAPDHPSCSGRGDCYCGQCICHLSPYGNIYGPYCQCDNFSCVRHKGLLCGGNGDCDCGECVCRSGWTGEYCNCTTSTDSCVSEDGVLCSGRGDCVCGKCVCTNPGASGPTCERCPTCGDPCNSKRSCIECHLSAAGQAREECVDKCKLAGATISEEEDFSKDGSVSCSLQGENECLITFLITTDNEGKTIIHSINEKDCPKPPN

The assay concerns the target T1, human αVβ6 (Homo sapiens, UniProt P06756+P18564).
T1 construct: purchased R & D systems 3817-AV
The experiment in a line: human αVβ6 HTRF binding assay. The settings on record: recombinant human αVβ6 integrin, FITC-conjugated fibronectin. How it is done: All binding assays used the HTRF (homogeneous time resolved fluorescence) technology from Cisbio International, therefore all assays are described as HTRF binding assays. The assay results for the Examples are listed above together with the characterization data. The HTRF binding assays are established for the following integrins: human αVβ6, human αVβ1, human αVβ3, human αVβ5, and human αVβ8. All assays used the following assay buffer: 20 mM Tris, pH 7.4, 1 mM MgCl2, 1 mM MnCl2, 0.01% Tween 20, and 0.01% BSA. Alternatively, a SPA-based assay was used for evaluation of receptor binding.
The following describes the components and a representative procedure for the human αVβ6 HTRF binding assay: Recombinant human αVβ6 Integrin (R & D systems, 3817-AV) was biotinylated. Biotinylated human αVβ6 Integrin was added to assay vessel at a final concentration of 1.25 nM. FITC-conjugated fibronectin (Cytoskeleton, FNR02) was then added at the final concentration of 5 nM. The mixture was centrifuged at 600 rpm for three minutes using Thermo Fisher Heraeus Multifuge X3 centrifuge and then incubated at RT for an hour. Streptavidin Terbium (Cisbio international 610STLB) was then added at the final concentration of 0.625 nM. The resulting mixture was centrifuged at 600 rpm for three minutes using Thermo Fisher Heraeus Multifuge X3 centrifuge and then incubated at room temperature overnight in dark before reading HTRF signals.
By IC50 is commonly meant the concentration needed to halve the response being measured. `O=C(O)CC(c1cncc(N2CCOCC2)c1)n1ccc(CCCc2ccc3c(n2)NCCC3)n1` (single isomer, unassigned) [Example 68, 3-[5-(morpholin-4-yl)pyridin-3-yl]-3-{3-[3-(5,6,7,8-tetrahydro-1,8-naphthyridin-2-yl)propyl]-1H-pyrazol-1-yl}propanoic acid]: the IC50 turned out to be 2.8 nM.

`CN(C)C(=O)c1cncc(C(CC(=O)O)n2nccc2CCCc2ccc3c(n2)NCCC3)c1` (racemic) [Example 72, (±)-3-[5-(dimethylcarbamoyl)pyridin-3-yl]-3-{5-[3-(5,6,7,8-tetrahydro-1,8-naphthyridin-2-yl)propyl]-1H-pyrazol-1-yl}propanoic acid]: the IC50 was 24 nM.

Regarding `COc1ccc(C(CC(=O)O)n2ccc(CCCc3ccc4c(n3)NCCC4)n2)cn1` (single isomer, unassigned) [Example 4, 3-(6-Methoxypyridin-3-yl)-3-(3-(3-(5,6,7,8-tetrahydro-1,8-naphthyridin-2-yl)propyl)-1H-pyrazol-1-yl)propanoic acid], the IC50 is 210 nM.

For `Cc1ncc([C@@H](CC(=O)O)n2cc(F)c(CCCc3ccc4c(n3)NCCC4)n2)cn1` [Example 114, (R)-3-(4-fluoro-3-(3-(5,6,7,8-tetrahydro-1,8-naphthyridin-2-yl)propyl)-1H-pyrazol-1-yl)-3-(2-methylpyrimidin-5-yl)propanoic acid], the IC50 came out at 4800 nM.

`COc1ccc(C(CC(=O)O)c2nc(CCCC3CCc4cccnc4N3)cs2)cn1` (single isomer, unassigned) [Example 156, 3-(6-methoxypyridin-3-yl)-3-(4-(3-(1,2,3,4-tetrahydro-1,8-naphthyridin-2-yl)propyl)thiazol-2-yl)propanoic acid]: the IC50 stood at 260 nM.

`O=C(O)CC(c1cncc(N2CCOCC2)c1)n1ccc(CCCc2ccc3c(n2)NCCC3)n1` (single isomer, unassigned) [Example 67, 3-[5-(morpholin-4-yl)pyridin-3-yl]-3-{3-[3-(5,6,7,8-tetrahydro-1,8-naphthyridin-2-yl)propyl]-1H-pyrazol-1-yl}propanoic acid]: the IC50 was determined as 210 nM.

With `COc1ccc(C(CC(=O)O)c2nc(CCCC3CCc4cccnc4N3)cs2)cc1F` (single isomer, unassigned) [Example 161, 3-(3-fluoro-4-methoxyphenyl)-3-(4-(3-(1,2,3,4-tetrahydro-1,8-naphthyridin-2-yl)propyl)thiazol-2-yl)propanoic acid], the IC50 came to 12 nM.

For `COc1ccc(C(CC(=O)O)c2nc(CCCC3CCc4cccnc4N3)cs2)cn1` (single isomer, unassigned) [Example 154, 3-(6-methoxypyridin-3-yl)-3-(4-(3-(1,2,3,4-tetrahydro-1,8-naphthyridin-2-yl)propyl)thiazol-2-yl)propanoic acid], the IC50 was found to be 210 nM.

For `Cc1ncc(C(CC(=O)O)c2nc(CCCc3ccc4c(n3)NCCC4)cs2)cn1` (single isomer, unassigned) [Example 148, 3-(2-methylpyrimidin-5-yl)-3-(4-(3-(5,6,7,8-tetrahydro-1,8-naphthyridin-2-yl)propyl)thiazol-2-yl)propanoic acid], the IC50 stood at 6 nM.

Regarding `COc1ccc(C(CC(=O)O)c2nc(CCCCc3ccc4c(n3)NCCC4)cs2)cc1OC` (single isomer, unassigned) [Example 124, 3-(3,4-dimethoxyphenyl)-3-(4-(4-(5,6,7,8-tetrahydro-1,8-naphthyridin-2-yl)butyl)thiazol-2-yl)propanoic acid], the IC50 was 2.5 nM.

As to `O=C(NC(Cc1cnn(CCc2ccc3c(n2)NCCC3)c1)C(=O)O)OCc1ccccc1` (racemic) [Example 5, (±)-2-(((Benzyloxy)carbonyl)amino)-3-(1-(2-(5,6,7,8-tetrahydro-1,8-naphthyridin-2-yl)ethyl)-1H-pyrazol-4-yl)propanoic acid], the IC50 worked out at 5000 nM.

`Cc1ncc(C(CC(=O)O)n2ccc(CCCc3ccc4c(n3)NCCCC4)n2)cn1` (single isomer, unassigned) [Example 97, 3-(2-methylpyrimidin-5-yl)-3-(3-(3-(6,7,8,9-tetrahydro-5H-pyrido[2,3-b]azepin-2-yl)propyl)-1H-pyrazol-1-yl)propanoic acid]: the IC50 was found to be 45 nM.

Take `COc1ccc(C(CC(=O)O)c2cc(CCCc3ccc4c(n3)NCCC4)[nH]n2)cc1F` (single isomer, unassigned) [Example 115, 3-(3-Fluoro-4-methoxyphenyl)-3-(5-(3-(5,6,7,8-tetrahydro-1,8-naphthyridin-2-yl)propyl)-1H-pyrazol-3-yl)propanoic acid]: the IC50 was 97 nM.

As to `Cc1cc(C)n(C(CC(=O)O)c2nc(CCCc3ccc4c(n3)NCCC4)cs2)n1` (single isomer, unassigned) [Example 163, 3-(3,5-dimethyl-1H-pyrazol-1-yl)-3-(4-(3-(5,6,7,8-tetrahydro-1,8-naphthyridin-2-yl)propyl)thiazol-2-yl)propanoic acid], the IC50 is 220 nM.

`Cc1ncc([C@@H](CC(=O)O)n2ccc(CCCc3ccc4c(n3)NCCC4)n2)cn1` [Example 55, (R)-3-(2-Methylpyrimidin-5-yl)-3-(3-(3-(5,6,7,8-tetrahydro-1,8-naphthyridin-2-yl)propyl)-1H-pyrazol-1-yl)propanoic acid]: the IC50 is 900 nM.

As to `COc1ccc(C(CC(=O)O)n2ccc(CCCc3ccc4c(n3)NCCCC4)n2)cn1` (racemic) [Example 100, (±)-3-(6-methoxypyridin-3-yl)-3-(3-(3-(6,7,8,9-tetrahydro-5H-pyrido[2,3-b]azepin-2-yl)propyl)-1H-pyrazol-1-yl)propanoic acid], the IC50 is 6.4 nM.

Take `O=C(O)CC(c1cnc2ccccc2n1)n1ccc(CCCc2ccc3c(n2)NCCC3)n1` (racemic) [Example 28, (±)-3-(Quinoxalin-2-yl)-3-(3-(3-(5,6,7,8-tetrahydro-1,8-naphthyridin-2-yl)propyl)-1H-pyrazol-1-yl)propanoic acid]: the IC50 was determined as 5500 nM.

For `CCOc1ncc(C(CC(=O)O)c2nc(CCCCc3ccc4c(n3)NCCC4)cs2)cn1` (single isomer, unassigned) [Example 129, 3-(2-ethoxypyrimidin-5-yl)-3-(4-(4-(5,6,7,8-tetrahydro-1,8-naphthyridin-2-yl)butyl)thiazol-2-yl)propanoic acid], the IC50 was 28 nM.

`COc1ccc(C(CC(=O)O)c2ncc(CCCc3ccc4c(n3)NCCC4)s2)cc1F` (single isomer, unassigned) [Example 42, 3-(3-Fluoro-4-methoxyphenyl)-3-(5-(3-(5,6,7,8-tetrahydro-1,8-naphthyridin-2-yl)propyl)thiazol-2-yl)propanoic acid]: the IC50 turned out to be 28 nM.

Take `O=C(O)CC(c1cc(Cl)cc(Cl)c1)c1cnn(CCCc2ccc3c(n2)NCCC3)c1` (racemic) [Example 26, (±)-3-(3,5-Dichlorophenyl)-3-(1-(3-(5,6,7,8-tetrahydro-1,8-naphthyridin-2-yl)propyl)-1H-pyrazol-4-yl)propanoic acid]: the IC50 is 27 nM.

Regarding `CN(C)c1ccc(C(CC(=O)O)c2nc(CCCc3ccc4c(n3)NCCC4)cs2)cn1` (single isomer, unassigned) [Example 133, 3-(6-(dimethylamino)pyridin-3-yl)-3-(4-(3-(5,6,7,8-tetrahydro-1,8-naphthyridin-2-yl)propyl)thiazol-2-yl)propanoic acid], the IC50 is 86 nM.

Regarding `COc1ccc(C(CC(=O)O)c2ncc(CCCCc3ccc4c(n3)NCCC4)s2)cn1` (single isomer, unassigned) [Example 17, 3-(6-Methoxypyridin-3-yl)-3-(5-(4-(5,6,7,8-tetrahydro-1,8-naphthyridin-2-yl)butyl)thiazol-2-yl)propanoic acid], the IC50 was found to be 16 nM.

Take `COc1ccc(C(CC(=O)O)c2nc(CCCCc3ccc4c(n3)NCCC4)cs2)cc1OC` (single isomer, unassigned) [Example 123, 3-(3,4-dimethoxyphenyl)-3-(4-(4-(5,6,7,8-tetrahydro-1,8-naphthyridin-2-yl)butyl)thiazol-2-yl)propanoic acid]: the IC50 amounted to 180 nM.

Take `COc1ccc(C(CC(=O)O)c2nc(CCCc3ccc4c(n3)NCCC4)cs2)cc1F` (single isomer, unassigned) [Example 39, 3-(3-Fluoro-4-methoxyphenyl)-3-(4-(3-(5,6,7,8-tetrahydro-1,8-naphthyridin-2-yl)propyl)thiazol-2-yl)propanoic acid]: the half-maximal inhibitory concentration (IC50) is 23 nM.

As to `COc1ccc(C(CC(=O)O)c2ncc(CCCCc3ccc4c(n3)NCCC4)n2C)cn1` (single isomer, unassigned) [Example 164, 3-(6-methoxypyridin-3-yl)-3-(1-methyl-5-(4-(5,6,7,8-tetrahydro-1,8-naphthyridin-2-yl)butyl)-1H-imidazol-2-yl)propanoic acid], the IC50 was found to be 460 nM.

As to `COc1ncc(C(CC(=O)O)n2nccc2CCC[C@@H]2CCc3cccnc3N2)cn1` (mixture of isomers) [Example 93, 3-(2-methoxypyrimidin-5-yl)-3-(5-(3-((R)-1,2,3,4-tetrahydro-1,8-naphthyridin-2-yl)propyl)-1H-pyrazol-1-yl)propanoic acid], the IC50 turned out to be 1030 nM.
